Where a name gives a salt, the structure may show the parent alone. Read-outs that look alike come from different tables or passages of the source.
Molecular target: YKL-40 (YKL-40-histag, chitin binding site) (Homo sapiens (Human), UniProt P36222)
Assay: YKL-40:4 assay, competitive chitin binding site AlphaScreen
[1] = competition with biotinylated compound 4, 20 nM, YKL-40-histag 2.5 nM, read-out: YKL-40:4, IC50/Kd (IC50 range)

Sequence of YKL-40 (YKL-40-histag, chitin binding site) (P36222 22-383): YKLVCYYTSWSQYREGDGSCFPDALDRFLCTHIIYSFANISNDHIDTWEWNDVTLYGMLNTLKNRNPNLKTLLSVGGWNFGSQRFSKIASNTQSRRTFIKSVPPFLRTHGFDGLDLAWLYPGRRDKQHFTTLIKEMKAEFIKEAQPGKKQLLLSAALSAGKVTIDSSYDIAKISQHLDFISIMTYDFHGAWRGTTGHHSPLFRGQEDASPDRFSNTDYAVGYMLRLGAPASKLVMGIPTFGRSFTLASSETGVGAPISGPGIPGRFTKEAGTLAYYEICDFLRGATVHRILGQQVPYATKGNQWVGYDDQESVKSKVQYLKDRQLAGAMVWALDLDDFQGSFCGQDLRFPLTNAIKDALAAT

Compound	IC50 [µM]	IC50 [1] [µM]
Clc1ccc(C[C@H]2COc3ccccc3CN2C2CCN(c3ccccn3)CC2)cc1 [Compound 81, (S)-3-(4-chlorobenzyl)-4-(1-(pyridin-2-yl)piperidin-4-yl)-2,3,4,5-tetrahydrobenzof[1,4]oxazepine hydrochloride]	> 10	–
C[C@H]1CN(C2CCN(c3ccccc3)CC2)[C@@H](Cc2ccc(Cl)cc2)CO1 [Example 37, (2S,5S)-5-(4-chlorobenzyl)-2-methyl-4-(1-phenylpiperidin-4-yl)morpholine dihydro-chloride]	–	> 10
C[C@H]1CN(C2CCN(c3cc(CO)ccn3)CC2)[C@@H](Cc2ccc(Cl)cc2)CO1 [Compound 130, (2-(4-((2S,5S)-5-(4-chlorobenzyl)-2-methylmorpholino)piperidin-1-yl)pyridin-4-yl)methanol 2,2,2-trifluoroacetate]	> 10	–
C[C@H]1CN(C2CCN(c3nccc4ccccc34)CC2)[C@@H](Cc2ccc(Cl)cc2)CO1 [Compound 116, (2S,5S)-5-(4-chlorobenzyl)-4-(1-(isoquinolin-1-yl)piperidin-4-yl)-2-methylmorpholine 2,2,2-trifluoroacetate]	> 10	–
CC(C)C[C@H]1CN(C2CCN(c3ccccn3)CC2)[C@@H](Cc2ccc(Cl)cc2)CN1CC(=O)OC(C)(C)C [Compound 2g, tert-butyl 2-((2S,5S)-5-(4-chlorobenzyl)-2-isobutyl-4-(1-(pyridin-2-yl)piperidin-4-yl)piperazin-1-yl)acetate]	> 10	–
C[C@H]1CN(C2CCN(c3ccccc3C#N)CC2)[C@@H](Cc2ccc(Cl)cc2)CO1 [Compound 119, 2-(4-((2S,5S)-5-(4-chlorobenzyl)-2-methylmorpholino)piperidin-1-yl)benzonitrile 2,2,2-trifluoroacetate]	> 10	–
Cc1cccnc1N1CCC(N2C[C@H](C)OC[C@@H]2Cc2ccc(Cl)cc2)CC1 [Example 16, (2S,5S)-5-(4-chlorobenzyl)-2-methyl-4-(1-(3-methylpyridin-2-yl)piperidin-4-yl)morpholine 2,2,2-trifluoroacetate]	> 10	–
C[C@H]1CN(C2CCN(c3nncs3)CC2)[C@@H](Cc2ccc(Cl)cc2)CO1 [Compound 181, (2S,5S)-4-(1-(1,3,4-thiadiazol-2-yl)piperidin-4-yl)-5-(4-chlorobenzyl)-2-methylmorpholine 2,2,2-trifluoroacetate]	> 10	–
CC(C)C[C@H]1CN(C2CCN(c3ccccn3)CC2)[C@@H](Cc2ccc(Cl)cc2)CN1C(=O)OC(C)(C)C [Compound 2e, tert-butyl (2S,5S)-5-(4-chlorobenzyl)-2-isobutyl-4-(1-(pyridin-2-yl)piperidin-4-yl)piperazine-1-carboxylate]	–	> 10
Cc1ccc(N2CCC(N3C[C@H](C)OC[C@@H]3Cc3ccc(Cl)cc3)CC2)nc1 [Compound 136, (2S,5S)-5-(4-chlorobenzyl)-2-methyl-4-(1-(5-methylpyridin-2-yl)piperidin-4-yl)morpholine hydrochloride]	–	> 10
C[C@H]1CN(C2CCN(c3ccnc(Cl)n3)CC2)[C@@H](Cc2ccc(Cl)cc2)CO1 [Compound 66, (2S,5S)-5-(4-chlorobenzyl)-4-(1-(2-chloropyrimidin-4-yl)piperidin-4-yl)-2-methylmorpholine]	–	> 10
C[C@H]1CN(C2C[C@H]3CC[C@@H](C2)N3c2cc(Cl)ccn2)[C@@H](Cc2ccc(Cl)cc2)CO1 (stereo partly drawn) [Compound 58, (2S,5S)-5-(4-chlorobenzyl)-4-((1R,5S)-8-(4-chloropyridin-2-yl)-8-azabicyclo[3.2.1]octan-3-yl)-2-methylmorpholine 2,2,2-trifluoroacetate]	> 10	–
COC(=O)c1ccnc(F)c1N1CCC(N2C[C@H](C)OC[C@@H]2Cc2ccc(Cl)cc2)CC1 [Compound 121, methyl 3-(4-((2S,5S)-5-(4-chlorobenzyl)-2-methylmorpholino)piperidin-1-yl)-2-fluoroisonicotinate]	–	> 10

Results, then the compound that gave them:

IC50 [µM]	IC50 [1] [µM]	Compound
> 10	–	C[C@H]1CN(C2CCN(c3cccc(F)c3)CC2)[C@@H](Cc2ccc(Cl)cc2)CO1 [Compound 127, (2S,5S)-5-(4-chlorobenzyl)-4-(1-(3-fluorophenyl)piperidin-4-yl)-2-methylmorpholine 2,2,2-trifluoroacetate]
> 10	–	C[C@H]1CN(C2CCN(c3cc(C(=O)O)ccn3)CC2)[C@@H](Cc2ccc(Cl)cc2)CO1 [Compound 125, 2-(4-((2S,5S)-5-(4-chlorobenzyl)-2-methylmorpholino)piperidin-1-yl)isonicotinic acid 2,2,2-trifluoroacetate]
> 10	–	CC(C)c1nc(N2CCC(N3C[C@H](C)OC[C@@H]3Cc3ccc(Cl)cc3)CC2)no1 [Compound 163, (2S,5S)-5-(4-chlorobenzyl)-4-(1-(5-isopropyl-1,2,4-oxadiazol-3-yl)piperidin-4-yl)-2-methylmorpholine 2,2,2-trifluoroacetate]
> 10	–	C[C@H]1CN(C2CCN(c3nccc(C(=O)O)c3F)CC2)[C@@H](Cc2ccc(Cl)cc2)CO1 [Compound 128, 2-(4-((2S,5S)-5-(4-chlorobenzyl)-2-methylmorpholino)piperidin-1-yl)-3-fluoroisonicotinic acid 2,2,2-trifluoroacetate]
–	> 10	COC(=O)c1ccnc(N2CCC(N3C[C@H](C)OC[C@@H]3Cc3ccc(Cl)cc3)CC2)c1 [Compound 124, methyl 2-(4-((2S,5S)-5-(4-chlorobenzyl)-2-methylmorpholino)piperidin-1-yl)isonicotinate]
> 10	–	C[C@H]1CN(C2CCN(c3cccc(C#N)n3)CC2)[C@@H](Cc2ccc(Cl)cc2)CO1 [Example 18, 6-(4-((2S,5S)-5-(4-chlorobenzyl)-2-methylmorpholino)piperidin-1-yl)picolinonitrile 2,2,2-trifluoroacetate]
> 10	–	C[C@H]1CN(C2CCN(c3cc(F)ncn3)CC2)[C@@H](Cc2ccc(Cl)cc2)CO1 [Example 24, (2S,5S)-5-(4-chlorobenzyl)-4-(1-(6-fluoropyrimidin-4-yl)piperidin-4-yl)-2-methylmorpholine 2,2,2-trifluoroacetate]
–	> 10	O=C1COC[C@H](Cc2ccc(Cl)cc2)N1C1CCN(c2ccccn2)CC1 [Compound 147, (S)-5-(4-chlorobenzyl)-4-(1-(pyridin-2-yl)piperidin-4-yl)morpholin-3-one hydrochloride]
> 10	–	C[C@H]1CN(C2CCN(c3ncnc(N)n3)CC2)[C@@H](Cc2ccc(Cl)cc2)CO1 [Compound 174, 4-(4-((2S,5S)-5-(4-chlorobenzyl)-2-methylmorpholino)piperidin-1-yl)-1,3,5-triazin-2-amine 2,2,2-trifluoroacetate]
–	> 10	C[C@H]1CN(C2CCN(c3cncc(C(F)(F)F)n3)CC2)[C@@H](Cc2ccc(Cl)cc2)CO1 [Compound 153, (2S,5S)-5-(4-chlorobenzyl)-2-methyl-4-(1-(6-(trifluoromethyl)pyrazin-2-yl)piperidin-4-yl)morpholine hydrochloride]
> 10	–	C[C@H]1CN(C2CCN(C(=O)OC(C)(C)C)CC2)[C@@H](Cc2ccc(Cl)cc2)CO1 [Compound 8d, tert-butyl 4-((2S,5S)-5-(4-chlorobenzyl)-2-methylmorpholino)piperidine-1-carboxylate]
–	> 10	C[C@H]1CN(C2CCN(c3cc(C(F)(F)F)ncn3)CC2)[C@@H](Cc2ccc(Cl)cc2)CO1 [Compound 145, (2S,5S)-5-(4-chlorobenzyl)-2-methyl-4-(1-(6-(trifluoromethyl)pyrimidin-4-yl)piperidin-4-yl)morpholine hydrochloride]

Source: patent US12325701B2, “YKL-40 inhibitors and their therapeutic” (Molecure S.A., priority 2022, dated 2025)
